SMILES strings stand for the structures. Like-named read-outs stand apart in the source and are kept apart here.

In one data set the test system is Diabrotica balteata. As to the kind of experiment: Transovarial effects on Diabrotica balteata adults fed on sprayed bean plants (% egg mortality). The conditions noted are these: for mortality at 10 ppm / mortality at 25 ppm / mortality at 50 ppm: Diabrotica balteata; for Transovarial effects on treated adults of Diabrotica balteata: at the used dose rates. It counts as in vivo. The procedure: The following IGRs in Table 1 were tested for their transovarial effects on Diabrotica balteata by observing percentage egg mortality.
Bean plants (Phaseolus vulgaris, var. Amata) were treated in an automatic spray chamber (ARO-1) with around 500 l/ha. After drying of the spray deposits, plants were placed in gauze cages and infested with newly hatched (0-24 h old) Diabrotica balteata adults. After seven days, treated plants were removed and replaced by non-treated plants. From day seven to day 38 eggs were collected in three-day intervals, counted and checked on number of hatched larvae (% egg mortality). Percentage egg mortality was calculated as the number of unhatched eggs per total number of eggs laid.

In another data set the test system is Spodoptera frugiperda. Nature of the data set: Foliar spray application on cotton, larval mortality of Spodoptera frugiperda. It counts as in vivo. The note with it: 4 DAT (days after treatment). From the text: For example on both Spodoptera frugiperda and Plutella xylostella similar activities were obtained for the same rates: […]
Where [1] appears, read: egg laying period 1, read-out: % egg mortality: on egg laying period 1.
[2] abbreviates: egg laying period 2, read-out: % egg mortality: on egg laying period 2.
Setting [3] is: egg laying period 3, read-out: % egg mortality: on egg laying period 3.
[4] abbreviates: egg laying period 4, read-out: % egg mortality: on egg laying period 4.
[5] abbreviates: egg laying period 5, read-out: % egg mortality: on egg laying period 5.
Where [6] appears, read: egg laying period 6, read-out: % egg mortality: on egg laying period 6.
The mark [7] stands for this setting: egg laying period 7, read-out: % egg mortality: on egg laying period 7.
Where [8] appears, read: egg laying period 8, read-out: % egg mortality: on egg laying period 8.

For the compound `COc1cccc(C(=O)NN(C(=O)c2cc(C)cc(C)c2)C(C)(C)C)c1C` [Intrepid, Methoxyfenozide], the mortality at 10 ppm is 7% in the data set on Diabrotica balteata (setting [1]), 8% with Diabrotica balteata (setting [2]), 9% with Diabrotica balteata (setting [3]) and 7% in the data set on Diabrotica balteata (setting [4]). The mortality at 25 ppm in the data set on Diabrotica balteata (setting [1]) came to 13%; in the data set with Diabrotica balteata (setting [2]), 13%; with Diabrotica balteata (setting [3]) it was 7%; in the data set on Diabrotica balteata (setting [4]), 11%. The values for the mortality at 50 ppm in the data set on Diabrotica balteata (setting [2]), in the data set on Diabrotica balteata (setting [3]) and with Diabrotica balteata (setting [4]) were 14%, 10% and 9%, respectively. In the data set with Diabrotica balteata, the “Transovarial effects on treated adults of Diabrotica balteata” value (“Transovarial effects on treated adults” for short) was “transovarially inactive”.
As to `CCc1ccc(C(=O)NN(C(=O)c2cc(C)cc(C)c2)C(C)(C)C)cc1` [Mimic, Tebufenozide], the mortality at 10 ppm in the data set with Diabrotica balteata (setting [1]) was found to be 7%; with Diabrotica balteata (setting [2]), 9%; in the data set on Diabrotica balteata (setting [3]), 8%; in the data set with Diabrotica balteata (setting [4]), 11%. The mortality at 25 ppm in the data set with Diabrotica balteata (setting [1]) is 9%; with Diabrotica balteata (setting [2]), 13%; in the data set on Diabrotica balteata (setting [3]), 9%; with Diabrotica balteata (setting [4]), 10%. The mortality at 50 ppm in the data set with Diabrotica balteata (setting [2]) was 10%; in the data set with Diabrotica balteata (setting [3]), 10%; in the data set with Diabrotica balteata (setting [4]), 13%. In the data set with Diabrotica balteata, the “Transovarial effects on treated adults” value was “transovarially inactive”.
With `O=C(NC(=O)c1c(F)cccc1F)Nc1cc(Cl)c(F)c(Cl)c1F` [Nomolt, Teflubenzuron], the mortality at 10 ppm is 40% in the data set with Diabrotica balteata (setting [1]); 15% in the data set on Diabrotica balteata (setting [2]); 7% with Diabrotica balteata (setting [3]); 11% in the data set with Diabrotica balteata (setting [4]); 8% with Diabrotica balteata (setting [5]); 14% with Diabrotica balteata (setting [6]). Also, the mortality at 25 ppm with Diabrotica balteata (setting [1]) is 76%; in the data set on Diabrotica balteata (setting [2]), 48%; in the data set on Diabrotica balteata (setting [3]), 34%; in the data set with Diabrotica balteata (setting [4]), 11%; with Diabrotica balteata (setting [6]), 13%. Further, the mortality at 50 ppm is 67% in the data set on Diabrotica balteata (setting [2]); 14% in the data set with Diabrotica balteata (setting [3]); 11% with Diabrotica balteata (setting [4]); 13% with Diabrotica balteata (setting [5]); 10% in the data set with Diabrotica balteata (setting [6]). Moreover, the “Spray interval (days)” value in the data set on Diabrotica balteata (Rate 5 g AI/ha) and in the data set with Diabrotica balteata (Rate 12.5 g AI/ha) was “Insufficient” throughout. The “Spray interval” value with Diabrotica balteata (Rate 25 g AI/ha) stood at 3 days. The “Transovarial effects on treated adults” value in the data set on Diabrotica balteata was “Transovarial effects can be observed”.
Consider `O=C(NC(=O)c1c(F)cccc1F)Nc1cc(Cl)c(OC(F)(F)C(F)C(F)(F)F)cc1Cl` (stereo not shown) [Match, Lufenuron], for which, in the data set with Spodoptera frugiperda, the LC50 result is recorded as “LC50 = 1 ppm”. The “total number of sterilised (unhatched) eggs, considered over the whole test period” value was around 20% in the data set with Diabrotica balteata (5 g AI ha^-1), “≈ 25%” with Diabrotica balteata (12.5 g AI ha^-1) and “≈ 25%” with Diabrotica balteata (25 g AI ha^-1). Moreover, the mortality at 10 ppm was 100% with Diabrotica balteata (setting [1]); 100% with Diabrotica balteata (setting [2]); 73% with Diabrotica balteata (setting [3]); 17% in the data set with Diabrotica balteata (setting [4]); 8% with Diabrotica balteata (setting [5]); 9% with Diabrotica balteata (setting [6]). Also, the mortality at 10 ppm with Diabrotica balteata (setting [7]) turned out to be 12%; with Diabrotica balteata (setting [8]), 8%. For the same compound, the mortality at 25 ppm in the data set with Diabrotica balteata (setting [1]) came out at 100%; with Diabrotica balteata (setting [2]), 100%; with Diabrotica balteata (setting [3]), 85%; in the data set with Diabrotica balteata (setting [4]), 15%; in the data set with Diabrotica balteata (setting [6]), 8%; in the data set on Diabrotica balteata (setting [7]), 9%. The mortality at 50 ppm was determined as 100% in the data set on Diabrotica balteata (setting [2]); 96% in the data set with Diabrotica balteata (setting [3]); 50% with Diabrotica balteata (setting [4]); 40% in the data set with Diabrotica balteata (setting [5]); 9% in the data set with Diabrotica balteata (setting [6]); 8% in the data set with Diabrotica balteata (setting [7]). Also, in the data set on Diabrotica balteata (setting [8]), the mortality at 50 ppm worked out at 8%. For the same compound, the “Spray interval” value in the data set with Diabrotica balteata (Rate 5 g AI/ha) turned out to be 5 days; in the data set with Diabrotica balteata (Rate 12.5 g AI/ha) it was 7 days; in the data set on Diabrotica balteata (Rate 25 g AI/ha), 7 days. Also, the “Transovarial effects on treated adults” value in the data set with Diabrotica balteata is on record as “Transovarial effects can be observed”.
In the case of `O=C(NC(=O)c1c(F)cccc1F)Nc1cc(Cl)c(OC(F)(F)C(F)F)c(Cl)c1` [Consult, Hexaflumuron], the mortality at 10 ppm was 75% in the data set on Diabrotica balteata (setting [1]); 36% in the data set with Diabrotica balteata (setting [2]); 7% with Diabrotica balteata (setting [3]); 8% with Diabrotica balteata (setting [4]); 9% in the data set on Diabrotica balteata (setting [5]); 10% with Diabrotica balteata (setting [6]). The mortality at 25 ppm turned out to be 97% with Diabrotica balteata (setting [1]); 93% in the data set with Diabrotica balteata (setting [2]); 15% in the data set with Diabrotica balteata (setting [3]); 11% with Diabrotica balteata (setting [4]); 11% in the data set with Diabrotica balteata (setting [6]). The mortality at 50 ppm with Diabrotica balteata (setting [2]) stood at 92%; in the data set with Diabrotica balteata (setting [3]), 15%; in the data set on Diabrotica balteata (setting [4]), 22%; in the data set on Diabrotica balteata (setting [5]), 48%; in the data set with Diabrotica balteata (setting [6]), 15%. In addition, the “Spray interval (days)” value in the data set on Diabrotica balteata (Rate 5 g AI/ha) is “Insufficient”. Also, the “Spray interval” value in the data set with Diabrotica balteata (Rate 12.5 g AI/ha) and in the data set on Diabrotica balteata (Rate 25 g AI/ha) was 5 days in each case. Also, in the data set with Diabrotica balteata, the “Transovarial effects on treated adults” value is “Transovarial effects can be observed”.
For `O=C(NC(=O)c1c(F)cccc1F)Nc1ccc(Cl)cc1` [Dimilin, Diflubenzuron], the mortality at 10 ppm in the data set with Diabrotica balteata (setting [1]) is 0%; with Diabrotica balteata (setting [2]), 11%; in the data set on Diabrotica balteata (setting [3]), 6%; in the data set on Diabrotica balteata (setting [4]) it was 10%; in the data set on Diabrotica balteata (setting [5]), 9%; in the data set with Diabrotica balteata (setting [6]), 12%. The mortality at 25 ppm with Diabrotica balteata (setting [1]) is 0%; in the data set with Diabrotica balteata (setting [2]), 7%; in the data set with Diabrotica balteata (setting [3]) it was 5%; with Diabrotica balteata (setting [4]), 5%; in the data set on Diabrotica balteata (setting [6]), 10%. Moreover, the mortality at 50 ppm was 16% in the data set on Diabrotica balteata (setting [2]); 3% with Diabrotica balteata (setting [3]); 5% with Diabrotica balteata (setting [4]); 7% with Diabrotica balteata (setting [5]); 7% in the data set with Diabrotica balteata (setting [6]); 8% with Diabrotica balteata (setting [7]). Further, in the data set with Diabrotica balteata, the “Transovarial effects on treated adults” value was “transovarially inactive”.
As to `O=C(NC(=O)c1c(F)cccc1F)Nc1ccc(Oc2ccc(C(F)(F)F)cc2Cl)cc1F` [Cascade, Flufenoxuron], the mortality at 10 ppm in the data set on Diabrotica balteata (setting [1]) came out at 69%; in the data set on Diabrotica balteata (setting [2]) it was 22%; in the data set with Diabrotica balteata (setting [3]), 91%; with Diabrotica balteata (setting [4]), 10%; with Diabrotica balteata (setting [5]) it was 9%; with Diabrotica balteata (setting [6]), 8%. The mortality at 10 ppm in the data set with Diabrotica balteata (setting [7]) and in the data set on Diabrotica balteata (setting [8]) was 8% throughout. Also, the mortality at 25 ppm in the data set on Diabrotica balteata (setting [1]) came out at 100%; in the data set with Diabrotica balteata (setting [2]), 100%; in the data set on Diabrotica balteata (setting [3]), 98%; in the data set with Diabrotica balteata (setting [4]), 64%; with Diabrotica balteata (setting [6]), 14%; with Diabrotica balteata (setting [7]), 9%. In addition, the mortality at 50 ppm in the data set on Diabrotica balteata (setting [2]) came to 100%; in the data set with Diabrotica balteata (setting [3]), 100%; in the data set on Diabrotica balteata (setting [4]), 64%; in the data set with Diabrotica balteata (setting [5]), 13%; in the data set on Diabrotica balteata (setting [6]) it was 6%; in the data set with Diabrotica balteata (setting [7]), 11%. Also, in the data set with Diabrotica balteata (setting [8]), the mortality at 50 ppm worked out at 9%. The “Spray interval” value with Diabrotica balteata (Rate 5 g AI/ha), in the data set with Diabrotica balteata (Rate 12.5 g AI/ha) and in the data set on Diabrotica balteata (Rate 25 g AI/ha) was 7 days in each case. In addition, the “Transovarial effects on treated adults” value in the data set on Diabrotica balteata is reported as “Transovarial effects can be observed”.

(Values after US20150087622A1, “NEW METHOD OF USE OF A PESTICIDE” (SYNGENTA PARTICIPATIONS AG, priority 2012, published 2015).)
